In brackets after ≈: the same amount, converted by molar mass. Read-outs that look alike come from different tables or passages of the source.
Key:
Test in all cases: minimal inhibitory concentration (MIC) by two-fold agar-plate dilution method
Assay type in all cases: cell-based
Ps. Aeruginosa 721 = conditions: Pseudomonas aeruginosa, 10^6 viable cells per ml, HI-agar, 37° C., 20 hours
Description: (§1) For the purpose of illustrating of usefulness of the object compound(1) of this invention, the following minimal inhibitory concentrations of some representative compounds against some test strains will be shown.
(§2) The minimal inhibitory concentration (MIC) was determined by the two-fold agar-plate dilution method as described below.
(§3) One loopful of an overnight culture of each test strain in Trypticase-soy broth was streaked on heart infusion agar (HI-agar) containing graded concentrations of representative antibiotic, and the MICs were expressed in terms of μg/ml. after incubation at 37° C. for 20 hours.

Sal. Enteritidis = conditions: Salmonella enterica, 10^8 viable cells per ml, HI-agar, 37° C., 20 hours
Description: as §2, §3

Ps. Aeruginosa = conditions: Pseudomonas aeruginosa
Description: as §2, §3

Sh flexneri 2a = conditions: 20 h
Description: as §1, §2, §3

B. Subtilis ATCC-6633 = conditions: Bacillus subtilis, ATCC6633, 10^8 viable cells per ml, HI-agar, 37° C., 20 hours
Description: as §2, §3

Staph. Aureus 209-P = conditions: Staphylococcus aureus, 10^8 viable cells per ml, HI-agar, 37° C., 20 hours
Description: as §2, §3

[1] = ENTERITIDIS, Sal. Enteritides, second part of table
[2] = Ps. Aeruginosa, 10^6 viable cells per ml, HI-agar, 37° C., 20 hours, read-out: MIC
[3] = Sal. Enteritidis, first part of table

SMILES	MIC (Ps. Aeruginosa 721) [µg/mL]	MIC (Sal. Enteritidis; [1]) [µg/mL]	MIC (Ps. Aeruginosa; [2]) [µg/mL]	MIC (Sh flexneri 2a) [µg/mL]	also measured
Cc1[nH]cc(OCC(=O)N[C@@H](C(=O)NC2C(=O)N3C(C(=O)O)=C(CSc4nnnn4C)CSC23)c2ccc(O)cc2)c(=O)c1Cl (stereo partly drawn) [Example 1-37, 7-{D-2-[2-(4-oxo-5-chloro-6-methyl-1,4-dihydropyridin-3-yloxy)acetamido]-2-(4-hydroxy)phenylacetamido} -3-(1-methyl-1H-tetrazol-5-ylthiomethyl)-3-cephem-4-carboxylic acid]	–	0.05 (≈ 0.0738 µM)	0.78 (≈ 1.15 µM)	0.1 (≈ 0.148 µM)	–
Cn1nnnc1SCC1=C(C(=O)O)N2C(=O)C(NC(=O)[C@H](NC(=O)COc3c[nH]c(CCl)cc3=O)c3ccccc3)C2SC1 (stereo partly drawn) [Example 1-35, 7-{D-2-[2-(4-oxo-6-chloromethyl-1,4-dihydropyridin-3-yloxy)acetamido]-2-penylacetamido}-3-(1-methyl-1H-tetrazol-5-ylthiomethyl)-3-cephem-4-carboxylicacid]	–	0.39 (≈ 0.59 µM)	0.78 (≈ 1.18 µM)	0.39 (≈ 0.59 µM)	–
Cc1[nH]cc(OCC(=O)N[C@@H](C(=O)NC2C(=O)N3C(C(=O)[O-])=C(CSc4nnnn4C)CS[C@H]23)c2ccccc2)c(=O)c1Cl.[Na+] (stereo partly drawn) [Example 1-31, sodium 7-{D-2-[2-(4-oxo-5-chloro-6-methyl-1,4-dihydropyridin-3-yloxy)acetamido]-2-phenylacetamido}-3-(1-methyl-1H-tetrazol-5-ylthiomethyl)-3-cephem-4-carboxylate]	–	–	–	0.2	MIC (B. Subtilis ATCC-6633): 0.78 µg/mL; MIC (Sal. Enteritidis; [3]): 0.39 µg/mL; MIC (Staph. Aureus 209-P): 1.56 µg/mL; MIC (Ps. Aeruginosa; 20 h): 0.78 µg/mL
Cn1nnnc1SCC1=C(C(=O)O)N2C(=O)C(NC(=O)[C@H](NC(=O)COc3c[nH]c(CO)c(Cl)c3=O)c3ccccc3)[C@H]2SC1 (stereo partly drawn) [Example 1-34, 7-{D-2-[2-(4-oxo-5-chloro-6-hydroxymethyl-1,4-dihydropyridin-3-yloxy)-acetamido]-2-phenylacetamido}-3-(1-methyl-1H-tetrazol-5-ylthiomethyl)-3-cephem-4-carboxylic acid]	–	0.2 (≈ 0.295 µM)	0.78 (≈ 1.15 µM)	0.2 (≈ 0.295 µM)	–
Cc1cc(=O)c(OCC(=O)N[C@@H](C(=O)NC2C(=O)N3C(C(=O)O)=C(CSc4nnnn4C)CSC23)c2ccccc2)c[nH]1 (stereo partly drawn) [Example 1-36, 7-{D-2-[2-(4-oxo-6-methyl-1,4-dihydropyridin-3-yloxy)acetamido]-2-phenylacetamido}-3-(1-methyl-1H-tetrazol-5-ylthiomethyl)-3-cephem-4-carboxylic acidm]	–	0.78 (≈ 1.24 µM)	1.56 (≈ 2.49 µM)	0.39 (≈ 0.622 µM)	–

Now from value to molecule, other results behind:

MIC (Ps. Aeruginosa 721) [µg/mL]	SMILES	MIC (Sal. Enteritidis; [1]) [µg/mL]	MIC (Ps. Aeruginosa; [2]) [µg/mL]	MIC (Sh flexneri 2a) [µg/mL]	also measured
1.56 (≈ 2.55 µM)	Cn1nnnc1SCC1=C(C(=O)O)N2C(=O)C(NC(=O)[C@H](NC(=O)Cc3cc(=O)[nH]c(=N)[nH]3)c3ccccc3)C2SC1 (some centres unmarked) [Example 1-16]	–	–	–	–
1.56 (≈ 2.46 µM)	Cn1nnnc1SCC1=C(C(=O)O)N2C(=O)C(NC(=O)[C@H](NC(=O)c3cnc4ccccn4c3=O)c3ccccc3)C2SC1 (stereo partly drawn) [Example 1-6, 7-[D-2-(4-oxo-4H-pyrido[1,2-a]pyrimidine-3-carboxamido)-2-phenylacetamide]-3-(1-methyl-1H-tetrazol-5-ylthiomethyl)-3-cephem-4-carboxylic acid]	–	–	–	–
0.78 (≈ 1.26 µM)	Cn1nnnc1SCC1=C(C(=O)O)N2C(=O)C(NC(=O)[C@H](NC(=O)c3cc(Cl)n[nH]c3=O)c3ccccc3)[C@H]2SC1 (stereo partly drawn) [Example 1-20, 7-[D-2-(3-oxo-6-chloro-2,3-dihydro-4-pyridazinecarboxamido)-2-phenylacetamido]-3-(1-methyl-1H-tetrazol-5-ylthiomethyl)-3-cephem-4-carboxylic acid]	–	–	–	–
0.39 (≈ 0.68 µM)	Cn1nnnc1SCC1=C(C(=O)O)N2C(=O)C(NC(=O)[C@H](NC(=O)c3nonc3O)c3ccccc3)[C@H]2SC1 (stereo partly drawn) [Example 1-1, 7-[D-2-(4-hydroxy-3-furazancarboxamido)-2-phenylacetamido]-3-(1-methyl-1H-tetrazol-5-ylthiomethyl)-3-cephem-4-carboxylic acid]	–	–	–	–
0.39 (≈ 0.66 µM)	Cn1nnnc1SCC1=C(C(=O)O)N2C(=O)C(NC(=O)[C@H](NC(=O)N3CCOC3=O)c3ccc(O)cc3)[C@H]2SC1 (stereo partly drawn) [Example 2-1, 7-[D-2-(2-oxo-3-oxazolidinecarboxamido)-2-(4-hydroxyphenyl)acetamido]-3-(1-methyl-1H-tetrazol-5-ylthiomethyl)-3-cephem-4-carboxylic acid]	–	–	–	–
0.39 (≈ 0.679 µM)	Cn1nnnc1SCC1=C(C(=O)O)N2C(=O)C(NC(=O)[C@H](NC(=O)N3CCOC3=O)c3ccccc3)[C@H]2SC1 (stereo partly drawn) [Example 1-10, 7-[D-2-(2-oxo-3-oxazolidinecarboxamido)-2-phenylacetamido]-3-(1-methyl-1H-tetrazol-5-ylthiomethyl)-3-cephem-4-carboxylic acid]	–	–	–	MIC (B. Subtilis ATCC-6633): 0.2 µg/mL (≈ 0.348 µM); MIC (Sal. Enteritidis; [3]): 0.78 µg/mL (≈ 1.36 µM); MIC (Staph. Aureus 209-P): 0.78 µg/mL (≈ 1.36 µM)

Reference: patent publication US4172198A, “7-(N-substituted-2-phenylglycinamido)-3-sub stituted-3-cephem-4-carboxylic acid compounds and preparation thereof” (Fujisawa Pharmaceutical Co., Ltd., priority 1976, dated 1979)
